Test results: US12377076B2, “Compounds for treating lymphoma or a T-cell malignant disease” (Purdue Pharma L.P., priority 2018, dated 2025)
“And” between values parts separate entries of the source, which are not always exact repeats. Equal values may be shown once. “Also recorded” adds a separate entry of the source.

Test system: patients with relapsed/refractory hematologic malignancies
Test: Phase 1 dose escalation trial: safety, TEAEs, DLTs, MTD
Format: in vivo, human
Description: A phase 1 trial was carried out including a dose escalation study to investigate the safety, pharmacokinetic (PK) profiles and efficacy of tinostamustine (EDO-S101) in relapsed/refractory hematologic malignancies.
The patient had relapsed/refractory hematologic malignancies for which there are no available therapies.
The assessment of dose-limiting toxicities (DLTs) was based on cycle 1 events alone. Toxicities were assessed regarding type and severity using the National Cancer Institute (NCI) Common Terminology Criteria for Adverse Events (CTCAE) version 4.03, June 2010. Toxicity data were collected for all patients throughout their time on study. Infusion site reactions were assessed using the Phlebitis Scale developed by the Infusion Nurses Society (2011).
DLTs, which were at least possibly related to study drug, were defined as: • Any Grade 3 or 4 non-hematologic toxicity (excluding alopecia and easily correctable electrolyte abnormalities); • Nausea, vomiting or diarrhoea that persists beyond 10 days despite aggressive symptomatic treatment; • Grade 4 neutropenia or thrombocytopenia lasting for 7 days or more; • Any grade 2 or more toxicity, but persist for over 3 weeks; and • Any toxicity resulting in a delay of the next dose administration (cycle 2 day 1≥14).
To ensure patients' safety, the stopping rules were implemented to the dose escalation stage of the study.
Other safety assessments included physical examinations, Eastern Cooperative Oncology Group (ECOG) performance status determinations, electrocardiograms (ECGs), pregnancy testing for women of childbearing potential, documentation of treatment-emergent adverse events (TEAEs), clinical laboratory evaluations including haematology, blood chemistry and urinalysis, vital signs, and documentation of concomitant medication usage.
If there is no DLT observed in any of these subjects, the trial proceeds to enroll additional subjects into the next higher dose cohort. If one subject develops a DLT at a specific dose, an additional three subjects are enrolled into that same dose cohort.

[1] = all cohorts administered over 30 or 45 minutes
[2] = clinical chemistry TEAE, All Patients (N = 46)
[3] = clinical chemistry TEAE, all patients
[4] = doses of 20 to 80 mg/m^2, cohorts 20/60 to 120/60
[5] = doses of 100 or 120 mg/m^2, cohorts 20/60 to 120/60
[6] = patients with normal or grade 1 or 2 values at baseline

Cn1c(CCCCCCC(=O)NO)nc2cc(N(CCCl)CCCl)ccc21 [tinostamustine]
DLTs in cycle 1 (100 mg/m^2 over 60 minutes): no dose-limiting toxicities | patients with Grade 3 and 4 thrombocytopenia in C2 and C3 leading to withdrawal (100 mg/m^2 over 60 minutes): three | Grade 3 TEAE (Patients (N = 46)): 28 (60.8) | Grade 4 TEAE (Patients (N = 46)): 13 (28.2) | Infusion site phlebitis (Patients (N = 46)): 1 (2.1) | SAE (Patients (N = 46)): 8 (17.4) | TEAE leading to early study discontinuation (Patients (N = 46)): 11 (23.9) | TEAE with outcome of death (Patients (N = 46)): 0 (0) | TEAE (Patients (N = 46), number (percent)): 42 (91.3) | Treatment-related TEAE (Patients (N = 46), relationship possible, probable or definite): 38 (82.6) | incidence of leukopenia (administered over 30 or 45 minutes): 16% | incidence of leukopenia (administered over 60 minutes): 27% | incidence of thrombocytopenia (administered over 60 minutes): 58% | maximum tolerated dose (MTD) (administered over 60 minutes, subset of patients with MM (N=11)): 100 mg/m^2 | SAE dyspnea (all 46 patients): 2% | SAE febrile neutropenia (all 46 patients): 2% | SAE hypersensitivity (all 46 patients): 2% | SAE osteomyelitis (all 46 patients): 2% | SAE pleural effusion (all 46 patients): 2% | SAE pneumonia (all 46 patients): 2% | SAE sepsis (all 46 patients): 2% | TEAE with an outcome of death (grade 5 TEAE) (all 46 patients): No patient | anaphylactic reaction leading to study drug discontinuation (all 46 patients): 2% | blood and lymphatic system disorders (all 46 patients): 54% | discontinuation for adverse events (AE) (all 46 patients): 29% | febrile neutropenia leading to study drug discontinuation (all 46 patients): 2% | gastrointestinal (GI) disorders (all 46 patients): 52% | general disorders and administration site conditions (all 46 patients): 50% | grade 3/4 anemia (all 46 patients): 22% | grade 3/4 leukopenia/WBC decreased (all 46 patients): 15% and 16% | grade 3/4 lymphopenia (all 46 patients): 8.6% | grade 3/4 neutropenia/neutrophil count decreased (all 46 patients): 29% | grade 3/4 thrombocytopenia (all 46 patients): 39% and 40% | hypersensitivity leading to study drug discontinuation (all 46 patients): 2% | incidence of all other TEAEs (all 46 patients): < 20% | incidence of nausea (all 46 patients): 29% | infusion-site phlebitis events (all 46 patients): 2% | neutropenia leading to study drug discontinuation (all 46 patients): 4% | patients who discontinued study drug because of a TEAE (all 46 patients): 23% | patients with a grade 3 or 4 TEAE (all 46 patients): 63% | patients with at least 1 grade 3 TEAE (all 46 patients): 60% | patients with at least 1 grade 4 TEAE (all 46 patients): 28% | patients with at least 1 serious adverse event (SAE) (all 46 patients): 18% | patients with at least one TEAE (all 46 patients): 91% | patients with at least one study drug-related TEAE (all 46 patients): 38 patients | pleural effusion leading to study drug discontinuation (all 46 patients): 2% | pruritus leading to study drug discontinuation (all 46 patients): 2% | thrombocytopenia leading to study drug discontinuation (all 46 patients): 15% | incidence of anaemia (all 46 patients, any grade): 39% | incidence of leukopenia/WBC decreased (all 46 patients, any grade): 21% and 22% | incidence of neutropenia/neutrophil count decreased (all 46 patients, any grade): 29% and 28% | incidence of thrombocytopenia/platelet count decreased (all 46 patients, any grade): 52% | SAE thrombocytopenia (all 46 patients, grade 3, HM120/60 cohort): 2% | incidence of anaemia [1]: 37% | incidence of thrombocytopenia [1]: 47% | thrombocytopenia leading to study drug and/or study discontinuation (all patients): 19% | Blood alkaline phosphatase increased [2]: 1 (2.1) n (%) | Blood magnesium decreased [2]: 1 (2.1) n (%) | Blood potassium decreased/hypokalaemia [2]: 5 (10.8) n (%) | C-reactive protein increased [2]: 2 (4.3) n (%) | Hyperglycaemia [2]: 1 (2.1) n (%) | Hyperuricemia [2]: 1 (2.1) n (%) | blood creatinine increased [2]: 4 (8.6) n (%) | C-reactive protein increased [3]: 4% | blood creatinine increased [3]: 9% | blood potassium decreased/hypokalemia [3]: 11% | grade 3 hyperuricemia (considered unrelated to study drug): 2% | DLTs that occurred (dose cohort of 120/60): Grade 4 thrombocytopenia lasting for 7 days or more; also recorded: Prolonged thrombocytopenia/toxicity resulting in the delay of the next dose administration | incidence of grade 3 or 4 anaemia (doses of 20 to 80 mg/m^2): 8% | incidence of anaemia [4]: 25% | incidence of grade 3/4 thrombocytopenia [4]: 8% | incidence of leukopenia [4]: 17% | incidence of neutropenia [4]: 25% | incidence of grade 3 or 4 anaemia (doses of 100 or 120 mg/m^2): 36% | incidence of anaemia [5]: 64% | incidence of grade 3/4 thrombocytopenia [5]: 71% | incidence of leukopenia [5]: 36% | incidence of neutropenia [5]: 50% | haematological nadir occurs (human, in vivo, intravenous): 17-23 day | patients who discontinued study drug and/or the study because of neutropenia (in vivo): Two | patients who discontinued study drug or the study because of leukopenia (in vivo): No patient | patients with treatment-emergent QTcF interval >500 msec (in vivo): One | treatment-emergent ECG abnormality indicated to be clinically significant (in vivo): No patient | MTD (lymphoma and multiple myeloma patients): 100 mg/m^2 | MTD (lymphoma subpopulation): 100 mg/m^2 | MAD (lymphoma subpopulation, administered over 1 hour): 120 mg/m^2 | patients experiencing DLTs (lymphoma, 120 mg/m^2 over 1 hour): Two out of six | QTcF interval (one subject, MM 80/45 cohort, discontinuation visit three weeks after only dose, screening 423 msec): 677 ms | incidence of cardiac disorders (overall): 11% | study drug-related cardiac disorder, grade 1 palpitations (overall): 2% | tachycardia (overall): 4% | treatment-emergent grade 4 clinical chemistry abnormality, hyperuricemia [6]: 2% | treatment-emergent shift to grade 3 aspartate aminotransferase increased [6]: 2% | treatment-emergent shift to grade 3 hypoalbuminemia [6]: 2% | incidence of neutropenia (shorter infusion times): 16%
